Measurements: patent US8492391B2, “Substituted 6-(2-hydroxybenzylamino)purine derivatives, their use as medicaments and compositions containing these derivatives” (Univerzita Palackeho V Olomouci, priority 2009, dated 2013)
“Also recorded” adds a separate entry of the source.

Legend:
β-adrenergic receptors = assay: Modulation of the activity of β-adrenergic receptors (isoproterenol-induced cAMP synthesis in C6 glioma); format: cell-based; conditions: rat C6 glioma, cAMP synthesis induced by 5 μM (−) isoproterenol, 30 min, simultaneous addition
Description: Mechanism of action of novel compounds is presented on FIG. 2. […] Incubation was at 37° C. in a humidified atmosphere. Assays were performed in the logaritmic growth phase at a density of 2.5×10^5 cells/cm^2. Intracellular cAMP synthesis was induced by addition of 5 μM (−) isoproterenol. After 30 min incubation at 37° C. the medium was removed and the cellular amount of cAMP determined using the cAMP-enzyme immunoassay kit of Amersham. The I50 is determined from a dose-response curve in duplicate. The effect of several novel substituted 6-(2-hydroxybenzylamino)purine derivatives was measured after simultaneous addition with isoproterenol.
As P2Y1-like and A2 purinergic receptors, negatively and positively coupled to adenylate cyclase respectively, are present on rat C6 glioma. It has to be determined if the modulation of the synthesis of cAMP is due to inhibition of the activation of β-adrenergic receptors by isoproterenol are due to activation of purinergic receptors.

[1] = tested on: p53, p21^WAF1, Mcl-1 in MCF-7 cells; assay: Immunoblotting of p53, p21WAF1 and Mcl-1 in MCF-7 cells; format: cell-based, human; conditions: MCF7, 24 h, concentration dependent, immunoblotting
Description: (§1) For immunoblotting, cell were detached with rubber policeman and washed three times with ice-cold PBS and lysed in buffer (50 mM Tris, pH 7.4, 250 mM NaCl, 5 mM EDTA, 50 mM NaF, 1 mM Na3VO4, 1% Nonidet P40) containing mixture of protease and phosphatase inhibitors (Sigma-Aldrich, USA). 20 μg of total proteins were separated by SDS-polyacrylamide gel electrophoresis (SDS-PAGE) and transferred onto nitrocellulose membranes. Membranes were blocked in 5% milk and 0.1% Tween 20 in PBS and probed overnight with specific monoclonal antibodies or rabbit polyclonal sera. Primary antibodies specific for p53 (DO-1, in house), p21^WAF1 (118, in house), PARP-1 (2C10, Sigma-Aldrich St Louis, Mo., USA), Mcl-1 (S-19, Santa Cruz, USA), all used at 1 μg/ml. All primary antibodies were diluted in PBS containing 5% powdered milk; 0.1% Tween 20. Peroxidase conjugated rabbit anti-mouse immunoglobulin or porcine anti-rabbit immunoglobulin antisera (DAKO, Denmark) were used as the secondary antibodies and visualised with ECL reagents (Amersham-Pharmacia, Little Chalfont, UK).
The induction of p53 protein was apparent in 4 hrs but enhanced level of p21^WAF1 protein was observed only 12 hours after treatment with compound 128 (FIG. 5). The periods of time 12 and 24 hrs were chosen, since the level of protein expression reached a steady state.

p53 = assay: p53-dependent transcription, β-galactosidase reporter in Arn8 cells; format: cell-based, human; design: key to p53 (effect): induction of p53 protein: ++: very strong; +: weak; −: no effect
Excerpt: Protein p53, accumulated in nuclei upon treatment by the compounds, then leads to trans-activation of natural cell cycle inhibitor p21^WAF1, further blocking the cell cycle. […] This allows qualitative as well as quantitative measurement of CDK inhibitors-induced p53 transcriptional activity via β-galactosidase assay. Then, the effect will be verified in treated cells by immunoblotting of proteins expressed under the control of p53. β-galactosidase activity of human melanoma cell line Arn8 was determined as described. […] Alternatively, β-galactosidase activity was quantified by measuring fluorescence of methylumbelliferyl-β-D-galactopyranoside cleavage product. Cell lines established from the human breast carcinoma (MCF-7) and the human melanoma (Arn8) cell lines were cultured in Dubecco's Modified Eagle Medium (DMEM) supplemented with 10% foetal bovine serum.
Effects of prepared compounds on activation of p53 protein were analysed in human melanoma cell line Arn8. […] The total β-galactosidase activity in Arn8 cells was quantified using a fluorimetric assay.

p53 in RPMI-8226 cells = assay: Immunoblotting in RPMI-8226 cells with temperature-sensitive p53 (E285K) at permissive and restrictive temperature; format: cell-based, human; conditions: RPMI-8226 cells, 30° C. versus restrictive temperature
Description: as §1, with “Primary antibodies specific for p53 (DO-1, in house), p21^WAF1 (118, in house), PARP-1 (2C10, Sigma-Aldrich St Louis, Mo., USA), Mcl-1 (S-19, Santa Cruz, USA), all used at 1 μg/ml.” left out
Then, we also determined effect of the compounds on the cell lines expressing some temperature-sensitive mutants of p53. For example, in BT474 and RPMI-8226 cells bearing temperature-sensitive mutant of p53 (E285K), p53 protein switches between mutant and wild-type conformation in a temperature-dependent manner. At restrictive (37° C.) temperature mutated p53 protein is expressed, while after shift to a permissive (30° C.) temperature p53 is folded correctly and functional. To analyze the functional involvement of p53 in the efficiency of the treatment with the compounds, we cultivated RPMI-8226 cells independently at two different temperatures (restrictive or permissive), and exposed them to increasing doses of selected compounds. The cell lysates were prepared and the levels of cell cycle regulators were analysed by immunoblotting.

[2] = tested on: C-terminal domain of RNA polymerase II (serine 2 and serine 5 phosphorylation); assay: Immunoblotting of RNA polymerase II CTD phosphorylation (CDK9 activity in cells), MCF-7; format: cell-based, human; conditions: MCF-7 cells
Description: Effect of compounds on CDK9 activity in cells was monitored by site-specific phosphorylations of C-terminal domain of RNA polymerase II, a substrate of CDK9, by means of immunoblotting. For immunoblotting, cell were detached with rubber policeman and washed three times with ice-cold PBS and lysed in buffer (50 mM Tris, pH 7.4, 250 mM NaCl, 5 mM EDTA, 50 mM NaF, 1 mM Na3VO4, 1% Nonidet P40) containing mixture of protease and phosphatase inhibitors (Sigma-Aldrich, USA). 20 μg of total proteins were separated by SDS-polyacrylamide gel electrophoresis (SDS-PAGE) and transferred onto nitrocellulose membranes. Membranes were blocked in 5% milk and 0.1% Tween 20 in PBS and probed overnight with specific monoclonal antibodies or rabbit polyclonal sera. Primary antibodies specific for RNA polymerase II (all from Santa Cruz Biotechnology, California, USA) included: (i) N-20 used at 1 μg/ml, (ii) H14, specific for form phosphorylated at phosphoserine 5, used at 6 μg/ml and (iii) H5, specific for form phosphorylated at phosphoserine 2 used at 4 μg/ml. […] All primary antibodies were diluted in PBS containing 5% powdered milk; 0.1% Tween 20. Peroxidase conjugated rabbit anti-mouse immunoglobulin or porcine anti-rabbit immunoglobulin antisera (DAKO, Denmark) were used as the secondary antibodies and visualised with ECL reagents (Amersham-Pharmacia, Little Chalfont, UK). […]

`CC[C@H](CO)Nc1nc(NCc2ccccc2)c2ncn(C(C)C)c2n1` [ROSC, roscovitine, reference compound] was tested, and the “EFFECT (modulation of the activity of β-adrenergic receptors)” value (β-adrenergic receptors) was “inactive”, the “expression of p53, p21^Waf1 and Mcl-1” value [1] was “accumulation of tumor suppressor protein p53, expression of p53-regulated CDK inhibitor p21^Waf1 and downregulation of antiapoptotic protein Mcl-1” and the “p53 (effect): induction of p53 protein” value (p53; Arn8 cells stable transfected with a β-galactosidase reporter gene) was “++”. For the same compound, the “activation of p53-dependent transcription” value (p53; Arn8 reporter cell line, β-galactosidase reporter activity) was “proved to activate p53-dependent transcription”, the “expression of anti-apoptotic protein Mcl-1” value (p53 in RPMI-8226 cells) was “suppressed more efficiently at 30 °C” and the “levels of serine 2 and serine 5 phosphorylation of RNA polymerase II CTD” value [2] was “substantially reduced; also recorded: is inhibited”.
